Earlier results on one substance are cited in patent publication US20230028307A1, “TREATMENT OF NEUROLOGICAL DISORDERS WITH AVERMECTINS” (Equilibre BioPharmaceuticals BV, priority 2020, published 2023).

The subject of series [1] is episodes of epileptic attack. The conditions noted are these: patients suffering from onchoceriasis treated with ivermectin.
The conditions of series [2]: humans, relatively large doses.

Consider ivermectin, for which the “episodes of epileptic attack” value in series [1] was “reduced”. The side effects result in series [2] was “no significant side effects”.
